This experiment addresses Beta-secretase 1 (Homo sapiens, UniProt P56817). Put plainly: Inhibition of BACE1-mediated amyloid precursor protein cleavage after 16 hrs by chemiluminescent enzyme-fragment complementation assay.

Chain of Beta-secretase 1 (P56817 whole entry, the tested form may be a part): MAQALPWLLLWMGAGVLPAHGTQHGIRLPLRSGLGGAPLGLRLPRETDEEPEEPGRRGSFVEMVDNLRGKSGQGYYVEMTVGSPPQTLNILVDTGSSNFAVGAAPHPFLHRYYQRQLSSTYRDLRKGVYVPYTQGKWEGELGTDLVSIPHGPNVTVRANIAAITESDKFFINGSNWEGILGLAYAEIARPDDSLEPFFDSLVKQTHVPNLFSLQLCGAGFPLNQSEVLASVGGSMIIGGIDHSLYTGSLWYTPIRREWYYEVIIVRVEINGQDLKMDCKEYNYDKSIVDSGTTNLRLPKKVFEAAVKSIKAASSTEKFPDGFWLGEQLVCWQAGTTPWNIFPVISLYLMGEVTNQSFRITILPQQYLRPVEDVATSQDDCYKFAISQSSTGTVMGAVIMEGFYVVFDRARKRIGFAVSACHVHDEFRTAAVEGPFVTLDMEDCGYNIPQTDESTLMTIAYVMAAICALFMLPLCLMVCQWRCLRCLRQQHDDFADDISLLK

Compound `C[C@H](CC(=O)[C@@]1([C@H](C)C(=O)O)CO1)[C@H]1CC[C@@]2(C)C3=C(CC[C@]12C)[C@@]1(C)CC[C@@H](OC(=O)CC(=O)O)C(C)(C)[C@@H]1CC3` [DAEDALOL C] registered an IC50 of 14.2 µM.

Source of the values: ChEMBL document CHEMBL1914397, “Daedalols A-C, fungal-derived BACE1 inhibitors” (Bioorg Med Chem, 2011).
